Measurements as given in ChEMBL document CHEMBL1201862, “PubChem BioAssay data set” (2004).
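Interpolation was linear, between the two tested concentrations surrounding the appropriate level; five concentrations were tested over 48 hours in 96-well plates. Abbreviation: GI50, concentration required for 50% inhibition of growth.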 Calls of active or inactive are those of the source. Rule as the data show it: active = GI50 up to about 1.1 µM and inactive = higher.

What was measured:
Test in all cases: NCI anticancer screen, dose series, 48 h
786-0 = system: 786-0
A498 = system: A498
A549 = system: A549
ACHN = system: ACHN
BT-549 = system: BT-549
CAKI-1 = system: CAKI-1
CCRF-CEM = system: CCRF-CEM
COLO 205 = system: COLO 205
DU-145 = system: DU-145
EKVX = system: EKVX
HCC 2998 = system: HCC 2998
HCT-116 = system: HCT-116
HCT-15 = system: HCT-15
HL-60 = system: HL-60
HOP-62 = system: HOP-62
HOP-92 = system: HOP-92
HT-29 = system: HT-29
Hs-578T = system: Hs-578T
IGROV-1 = system: IGROV-1
K562 = system: K562
KM12 = system: KM12
LOX IMVI = system: LOX IMVI
M14 = system: M14
MCF7 = system: MCF7
MDA-MB-435 = system: MDA-MB-435
MDA-N = system: MDA-N
MOLT-4 = system: MOLT-4
Malme-3M = system: Malme-3M
NCI-H226 = system: NCI-H226
NCI-H23 = system: NCI-H23
NCI-H460 = system: NCI-H460
NCI-H522 = system: NCI-H522
NCI/ADR-RES = system: NCI/ADR-RES
OVCAR-3 = system: OVCAR-3
OVCAR-4 = system: OVCAR-4
OVCAR-5 = system: OVCAR-5
OVCAR-8 = system: OVCAR-8
PC-3 = system: PC-3
RPMI-8226 = system: RPMI-8226
RXF 393 = system: RXF 393
SF-268 = system: SF-268
SF-295 = system: SF-295
SF-539 = system: SF-539
SK-MEL-28 = system: SK-MEL-28
SK-MEL-2 = system: SK-MEL-2
SK-MEL-5 = system: SK-MEL-5
SN12C = system: SN12C
SNB-19 = system: SNB-19
SNB-75 = system: SNB-75
SW-620 = system: SW-620
T47D = system: T47D
TK-10 = system: TK-10
U-251 = system: U-251
UACC-257 = system: UACC-257
UACC-62 = system: UACC-62
UO-31 = system: UO-31

Structure (SMILES): Cc1cccc2c1C(=O)/C(=C/c1ccccc1C(=O)O)C2
- GI50 (786-0): > 100 µM (inactive)
- GI50 (A498): > 100 µM (inactive)
- GI50 (A549): > 100 µM (inactive)
- GI50 (ACHN): > 100 µM (inactive)
- GI50 (BT-549): > 100 µM (inactive)
- GI50 (CAKI-1): > 100 µM (inactive)
- GI50 (CCRF-CEM): > 100 µM (inactive)
- GI50 (COLO 205): > 100 µM (inactive)
- GI50 (DU-145): > 100 µM (inactive)
- GI50 (EKVX): 66.8 µM (inactive)
- GI50 (HCC 2998): > 100 µM (inactive)
- GI50 (HCT-116): 98.6 µM (inactive)
- GI50 (HCT-15): > 100 µM
- GI50 (HL-60): > 100 µM (inactive)
- GI50 (HOP-62): > 100 µM (inactive)
- GI50 (HOP-92): > 100 µM (inactive)
- GI50 (HT-29): > 100 µM (inactive)
- GI50 (Hs-578T): > 100 µM (inactive)
- GI50 (IGROV-1): > 100 µM (inactive)
- GI50 (K562): > 100 µM (inactive)
- GI50 (KM12): > 100 µM (inactive)
- GI50 (LOX IMVI): > 100 µM (inactive)
- GI50 (M14): > 100 µM (inactive)
- GI50 (MCF7): > 100 µM (inactive)
- GI50 (MDA-MB-435): > 100 µM (inactive)
- GI50 (MDA-N): > 100 µM (inactive)
- GI50 (MOLT-4): > 100 µM (inactive)
- GI50 (Malme-3M): > 100 µM (inactive)
- GI50 (NCI-H226): 98.4 µM (inactive)
- GI50 (NCI-H23): > 100 µM (inactive)
- GI50 (NCI-H460): > 100 µM (inactive)
- GI50 (NCI-H522): > 100 µM (inactive)
- GI50 (NCI/ADR-RES): > 100 µM (inactive)
- GI50 (OVCAR-3): > 100 µM (inactive)
- GI50 (OVCAR-4): > 100 µM (inactive)
- GI50 (OVCAR-5): > 100 µM (inactive)
- GI50 (OVCAR-8): > 100 µM (inactive)
- GI50 (PC-3): > 100 µM (inactive)
- GI50 (RPMI-8226): 32.8 µM (inactive)
- GI50 (RXF 393): > 100 µM (inactive)
- GI50 (SF-268): > 100 µM (inactive)
- GI50 (SF-295): > 100 µM (inactive)
- GI50 (SF-539): > 100 µM (inactive)
- GI50 (SK-MEL-28): > 100 µM (inactive)
- GI50 (SK-MEL-2): > 100 µM (inactive)
- GI50 (SK-MEL-5): 37.5 µM (inactive)
- GI50 (SN12C): > 100 µM (inactive)
- GI50 (SNB-19): > 100 µM (inactive)
- GI50 (SNB-75): 85.3 µM (inactive)
- GI50 (SW-620): > 100 µM (inactive)
- GI50 (T47D): > 100 µM (inactive)
- GI50 (TK-10): > 100 µM (inactive)
- GI50 (U-251): > 100 µM (inactive)
- GI50 (UACC-257): > 100 µM (inactive)
- GI50 (UACC-62): > 100 µM (inactive)
- GI50 (UO-31): > 100 µM (inactive)
